d = 2'-deoxy (DNA); m = 2'-O-methyl
Assays:
APE2 [1] = experiment: Western blot of kidney protein expression in platinum drug-treated mice: APE2; assay type: in vivo, mouse; conditions: for APE2 expression in kidney cells: 40 mg/kg single intraperitoneal dose
Procedure: (§1) Ten-week-old wild-type C57BL/6J mice weighing 25-28 g were purchased from the Jackson Laboratory. […] An identical volume of saline (0.9% NaCl) was administered intraperitoneally to control mice.
(§2) Total protein samples were isolated with RIPA buffer, fractionated on 4%-12% Bis-Tris polyacrylamide gels (Thermo Fisher Scientific), and electroblotted onto PVDF membranes (Millipore). Membranes were blocked with 5% nonfat milk and incubated overnight with rabbit anti-APE2 polyclonal antibody (Bioss, #bs-6587R), rabbit anti-APE1 polyclonal antibody (Abnova, #H00000328-D02), mouse anti-LIG3 monoclonal antibody (Santa Cruz Biotechnology, #sc-56089), rabbit anti-MRE11 monoclonal antibody (Cell Signaling Technology, #4847), rabbit anti-CtIP polyclonal antibody (Bethyl Laboratories, #300-488A), or goat anti-β-actin polyclonal antibody (Santa Cruz Biotechnology, #sc-1615) overnight at 4° C. Membranes were then washed and incubated with HRP-linked anti-rabbit IgG secondary antibody (Cell Signaling Technology, #7074) or HRP-linked anti-mouse IgG secondary antibody (Cell Signaling Technology, #7076S). […] Detection by chemiluminescence was carried out by means of a SuperSignal West Femto Maximum Sensitivity Substrate kit (Thermo Fisher Scientific) with β-actin as a loading control.

APE2 [2] = experiment: Immunofluorescence of APE2 subcellular localization in primary mouse PTCs after cisplatin; assay type: cell-based; conditions: primary mouse PTCs treated with cisplatin
Procedure: (§3) HEK293T and HK2 cells were purchased from the ATCC. Mouse anti-Prominin-1 MicroBeads (130-092-333, Miltenyi Biotec) were used to isolate PTCs from APE2LSL/− CreERT2+/− mice, Cre-ERT2+/− mice, C57B6 mice, and APE2 KO mice. The primary PTCs were cultured in DMEM/Nutrient Mixture F-12 (DMEM/F12) containing 10% FBS, 100 U/mL penicillin, and 100 μg/mL streptomycin. HEK293T and HK2 cells were routinely genotyped using the Human Cell Line Genotyping System (Promega) and were used within their 6 times passage. Mouse PTCs were genotyped using the primer for transgenic mice and were used within their 3 times passage. All cell lines were used Mycoplasma tested negative.
(§4) Immunofluorescence staining was performed as described previously (20). The slides of HK2 cells were incubated sequentially with rabbit anti-APE2 antibody (GeneTex), goat anti-rabbit Alexa Fluor 488-conjugated secondary antibody (Abcam), mouse anti-MYH9 antibody (GeneTex), goat anti-mouse Alexa Fluor 647-conjugated secondary antibody (Abcam), and rabbit anti-COXIV antibody Alexa Fluor […]-conjugated antibody (Santa Cruz Biotechnology). […]

CTIP = experiment: Western blot of kidney protein expression in cisplatin-treated mice: CTIP; assay type: in vivo, mouse; conditions: cisplatin 15 mg/kg, 3 days after treatment
Procedure: as §1, §2

LIG3 = experiment: Western blot of kidney protein expression in cisplatin-treated mice: LIG3; assay type: in vivo, mouse; conditions: cisplatin 15 mg/kg, 3 days after treatment
Procedure: as §1, §2

[3] = tested on: wild-type (WT) and APE2 KO mice; conditions: mouse, in vivo, 15 mg/kg
Procedure: as §1
(§5) APE2 conditional transgenic mice were generated by inserting a transcription-translation STOP cassette flanked by LoxP sites (LSL) at the start of the APE2 locus. An FRT-mediated recombination ColA1 3′ untranslated region locus was used first to generate APE2LSL mice. The STOP cassette prevents expression of the APE2 gene. To remove the STOP cassette and activate APE2 expression in vivo, the APE2LSL mice were mated with Rosa26-Cre-Estrogen Receptor-T2 (CreERT2+/−) mice (18; #8463, The Jackson Laboratory), in which the ERT moiety retains Cre recombinase activity in the cytoplasm until tamoxifen administration releases this block and promotes recombination of genomic LoxP sites. Three-week-old APE2LSL/+CreERT2+/− mice and CreERT2+/− mice were injected intraperitoneally with 10 mg/kg 4-OH-tamoxifen for 3 consecutive days. Creatinine and EPO were measured using mouse creatinine (Crystal Chem) and EPO (R&D Systems) ELISA kits. We used heterozygous male (APE2−/Y) mice (12) bearing a mutated APE2 allele on the X chromosome, in which a genomic region from the 3′-region of its intron 5 to the 5′-region in exon 6 was replaced by a neo cassette by crossing heterozygous APE2 female (APE2−/+) mice with wild-type C57BL/6 mice. […] Using this breeding strategy, there is the potential risk and uncertainty of interference with the germline DNA in the male and female APE2 knockout progeny because APE2 has already been knocked out in the male parent (APE2−/Y) and because the function of APE2 is to be responsible for DNA damage repair (13). All mice were of C57B6 genetic background. All experiments involving animals were pre-approved by the Cleveland Clinic IACUC (Institutional Animal Care and Use Committee).
(§6) Mouse kidney biopsy specimens were submerged in 2.5% EM grade glutaraldehyde in 2.5% glutaraldehyde/4% paraformaldehyde in 0.2 mol/L sodium cacodylate buffer (pH 7.4) at 4° C. immediately after sectioning and fixed at 4° C. overnight. After washing three times for 5 minutes in sodium cacodylate buffer (0.2 mol/L, pH 7.3), kidney fragments were fixed in 1% aqueous osmium tetroxide for 60 minutes at 4° C., then washed twice for 5 minutes with sodium cacodylate buffer and rinsed once with maleate buffer (pH 5.1, 5 minutes). After changing to 1% uranyl acetate in maleate buffer, the samples were stained for 60 minutes; the uranyl acetate was removed. The samples were then washed three times for 5 minutes with maleate buffer and then dehydrated with ascending grades of ethanol, and finally embedded in Epon resin (Electron Microscopy Science). […]

primary PTCs = experiment: Oxygen consumption (Seahorse Cell Mito Stress) of PTCs from cisplatin-treated mice; assay type: cell-based, mouse; conditions: PTCs of cisplatin-treated APE2 KO mice versus WT
Procedure: as §3
The functional activity of PTC mitochondria was measured by using a Seahorse XF24 Analyzer and a Seahorse XF Cell Mito Stress Test Assay (Agilent Technologies). Mitochondrial functionality was examined by direct measurement of the OCR of cells according to the manufacturer's instructions. Briefly, 8×10^4 PTCs were seeded into 24-well plates and allowed to attach overnight. The cells were subjected to OCR detection by sequential injections of oligomycin, carbonyl cyanide p-trifluoromethoxyphenylhydrazone (FCCP), and a combination of rotenone and antimycin A. Basal OCR=measured OCR level before the injection of oligomycin. Adenosine triphosphate (ATP) synthesis-linked OCR (ATP-linked)=basal OCR−OCR following oligomycin injection. […]

PCNA = experiment: Western blot of kidney protein expression in cisplatin-treated mice: PCNA; assay type: in vivo, mouse; conditions: cisplatin 15 mg/kg, 3 days after treatment
APE1 = experiment: Western blot of kidney protein expression in cisplatin-treated mice: APE1; assay type: in vivo, mouse; conditions: cisplatin 15 mg/kg, 3 days after treatment
Procedure: as §1, §2

APE2 [4] = experiment: IHC staining for APE2 in kidney biopsies of C-AKI patients; assay type: in vivo, human; conditions: two patients with C-AKI versus normal kidney biopsies
Procedure: Kidney specimens were obtained from healthy donors and from cisplatin-induced AKI patients in accordance with Cleveland Clinic Foundation Institutional Review Board approval requirements, and written informed consent was obtained in compliance with the Helsinki. Formalin-fixed paraffin-embedded tissue sections were de-paraffinized and then incubated with rabbit anti-APE2 polyclonal antibody (Bioss, bs-6587R), rabbit anti-cleaved caspase-3monoclonal antibody (Cell Signaling Technology, #9664S), rabbit anti-MYH9 antibody (GeneTex GTX113236), or rabbit anti-phosphor-histone H2A.X(Ser139) polyclonal antibody (Cell Signaling Technology, #2577) at 4° C. overnight. After incubation with horseradish peroxidase (HRP)-conjugated goat anti-rabbit secondary antibody, signal was detected using a DAB Substrate kit (Abcam, ab64238) according the manufacturer's instructions. Images were obtained by means of a phase-contrast microscope (Leica DM2000 LED) and a digital camera (Leica DMC 2900).

MRE11 = experiment: Western blot of kidney protein expression in cisplatin-treated mice: MRE11; assay type: in vivo, mouse; conditions: cisplatin 15 mg/kg, 3 days after treatment
Procedure: as §1, §2

[5] = within 24 hours of administration; cited from earlier work
APE2 [6] = experiment: Immunofluorescence of APE2 subcellular localization in HK2 cells after cisplatin; assay type: cell-based, human; conditions: HK2 cells treated with cisplatin
Procedure: as §3, §4

[7] = tested on: CreERT2+/−, APE2LSL/− mice; experiment: APE2-ASO treatment of transgenic CreERT2+/−, APE2LSL/− mice (APE2 AKI mouse model); assay type: in vivo; conditions: for kidney function: treated 4 weeks, once per week
Description: as §5, §6

APE2 [8] = experiment: PK/PD study in C57B6 mice, APE2 expression by western blot; assay type: in vivo, mouse
Procedure: Further optimization of the ASO drug. Potential ASO toxicities fall into two categories: (i) hybridization-dependent toxicities due to on- or off-target events, and (ii) hybridization-independent toxicities, such as excessive immunostimulation due to non-antisense effects of the ASO. We performed the PK/PD study using C57B6 mice. We IP injected six weeks old male mice with 20 mg/kg APE2-ASO and checked the APE2 expression by western blot analysis. We found the APE2 could be knock down in two days and restored in 4 days after injection (FIG. 9).

[9] = 20 mg/kg IP, six weeks old male C57B6 mice

N.N.O=C([O-])C1(C(=O)[O-])CCC1.[Pt+2] [carboplatin]
APE2 expression in kidney cells (APE2 [1]): slight upregulation

N.N.[Cl][Pt][Cl] [cisplatin]
APE2 subcellular localization (APE2 [2]): enriched in the cytoplasm, especially within mitochondria | CTIP expression in kidney (CTIP): slightly upregulated | LIG3 expression in kidney (LIG3): slightly upregulated | kidney damage [3]: only minor kidney damage | kidney weight [3]: decreased kidney weight | mitochondrial fragmentation (EM) [3]: less mitochondrial fragmentation | renal damage [3]: most severe | OCR in PTCs (primary PTCs): significantly increased | PCNA expression in kidney (PCNA): downregulated | APE1 expression in kidney (APE1): slightly upregulated | APE2 expression in kidney (APE2 [1]; cisplatin 15 mg/kg single intraperitoneal dose, kidney collected 3 days after treatment): the most highly upregulated protein | APE2 protein in PTCs by IHC (APE2 [4]): dramatically upregulated | MRE11 expression in kidney (MRE11): slightly upregulated | cisplatin excreted via the urine [5]: 50%-80% | APE2 subcellular localization (APE2 [6]): enriched in the cytoplasm, especially within mitochondria

O=C1[O][Pt]2([NH][C@@H]3CCCC[C@H]3[NH]2)[O]C1=O [oxaliplatin]
APE2 expression in kidney cells (APE2 [1]): slight upregulation

mU*mG*mU*C*C*T*T*A*C*A*G*A*A*mG*mG*mU (UGUCCTTACAGAAGGU; sugars from the 5' end m3 d10 m3, all phosphorothioate, methylation of C not given here) [APE2-ASO-3]
plasma creatine level ([7]; compared with saline treated controls, P<0.01): significantly reduced | mitochondrial morphology (EM) ([7]; compared with vehicle treated mice, age of eight weeks): remained relatively normal | kidney function [7]: protected | kidney function ([7]; listed as APE2-ASO gapmer drug): protected kidney function | time to APE2 knock down after injection (APE2 [8]; [9]): two | time to restored APE2 expression after injection (APE2 [8]; [9]): 4 days | APE2 level (APE2 [8]; wild type C57B6 mice): knock down
